Laboratory results: article PMC9090415, “Discovery of small molecule inhibitors of Plasmodium falciparum apicoplast DNA polymerase” (Journal of Enzyme Inhibition and Medicinal Chemistry, 2022)

Molecular target: P. falciparum apicoplast DNA polymerase (Pf-apPOL) (Plasmodium falciparum, UniProt Q8ILY1)
Assay: Fluorescence-based high-throughput DNA polymerase assay (molecular beacon), primary screen and dose-response;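 on % inhibition ApPOL 90': test concentration in µM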;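 on % inhibition apPOL 180': test concentration in µM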
Type: biochemical
Conditions: for DNA Pol: 90 min, 10 µM; for IC50: supplemental file 2, sheet IC50 nontoxic compounds, Pf-apPOL
Summary of the method: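 Single-point screening used 10 µM compound with 20 nM polymerase, 20 nM hairpin substrate and 6 µM dNTPs for 90 min at 25 °C. Confirmatory titrations (2.5–80 µM) followed fluorescence at three times, and IC50 was derived from a fit including a cooperativity term n.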

[1] = 'DNA Pol', screening value, unit not given
[2] = primary screen hit value, DNA Pol (186 hits)
[3] = conc 2.5 (unit not given), 40', DRC-2
[4] = conc 5 (unit not given), 90', DRC-2

P. falciparum apicoplast DNA polymerase (Pf-apPOL), sequence (Q8ILY1 entry or part of it): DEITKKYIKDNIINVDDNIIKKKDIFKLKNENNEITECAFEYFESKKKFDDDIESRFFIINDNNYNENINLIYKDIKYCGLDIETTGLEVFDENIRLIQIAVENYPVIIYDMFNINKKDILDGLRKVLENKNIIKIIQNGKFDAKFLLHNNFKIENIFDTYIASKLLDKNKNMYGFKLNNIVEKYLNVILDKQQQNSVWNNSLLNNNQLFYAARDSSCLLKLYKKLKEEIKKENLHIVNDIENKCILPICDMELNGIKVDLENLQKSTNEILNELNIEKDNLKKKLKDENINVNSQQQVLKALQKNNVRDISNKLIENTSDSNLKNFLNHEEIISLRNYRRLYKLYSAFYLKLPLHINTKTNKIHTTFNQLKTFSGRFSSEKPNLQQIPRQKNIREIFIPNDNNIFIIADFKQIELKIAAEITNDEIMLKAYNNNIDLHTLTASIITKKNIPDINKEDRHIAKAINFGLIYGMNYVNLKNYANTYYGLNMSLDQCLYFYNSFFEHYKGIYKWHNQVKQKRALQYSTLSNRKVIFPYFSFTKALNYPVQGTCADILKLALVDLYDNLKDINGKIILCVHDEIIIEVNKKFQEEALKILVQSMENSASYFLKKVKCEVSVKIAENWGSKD

Compound: CN(C)C=CC(=O)c1ccccn1 [Molecule 64, CN(C=CC(=O)c1ccccn1)C]
- DNA Pol [1]: 79
- % inhibition Apo pol 10' (DRC-1, concentration 2.5): 5.279%
- % inhibition Apo pol 10' (DRC-1, concentration 5): 16.5803%
- % inhibition Apo pol 10' (DRC-1, concentration 10): 34.5693%
- % inhibition Apo pol 10' (DRC-1, concentration 20): 50.9232%
- % inhibition Apo pol 10' (DRC-1, concentration 40): 69.0219%
- % inhibition Apo pol 10' (DRC-1, concentration 80): 79.1475%
- % inhibition Apol 90' (DRC-1, 90', concentration 2.5): 1.734%
- % inhibition Apol 90' (DRC-1, 90', concentration 5): 6.501%
- % inhibition Apol 90' (DRC-1, 90', concentration 10): 20.4436%
- % inhibition Apol 90' (DRC-1, 90', concentration 20): 33.6237%
- % inhibition Apol 90' (DRC-1, 90', concentration 40): 52.2034%
- % inhibition Apol 90' (DRC-1, 90', concentration 80): 65.606%
- % inhibition apPOL 180' (DRC-1, 180', concentration 2.5): -0.4261%
- % inhibition apPOL 180' (DRC-1, 180', concentration 5): -0.5089%
- % inhibition apPOL 180' (DRC-1, 180', concentration 10): 10.9691%
- % inhibition apPOL 180' (DRC-1, 180', concentration 20): 21.4909%
- % inhibition apPOL 180' (DRC-1, 180', concentration 40): 39.455%
- % inhibition apPOL 180' (DRC-1, 180', concentration 80): 54.1589%
- % inhibition Apo pol 5' (DRC-2, 5', concentration 2.5): 10%
- % inhibition Apo pol 5' (DRC-2, 5', concentration 5): 18%
- % inhibition Apo pol 5' (DRC-2, 5', concentration 10): 34%
- % inhibition Apo pol 5' (DRC-2, 5', concentration 20): 44%
- % inhibition Apo pol 5' (DRC-2, 5', concentration 40): 50%
- % inhibition Apo pol 5' (DRC-2, 5', concentration 80): 54%
- % inhibition Apol 40' (DRC-2, 40', concentration 2.5): 6%
- % inhibition Apol 40' (DRC-2, 40', concentration 5): 12%
- % inhibition Apol 40' (DRC-2, 40', concentration 10): 27%
- % inhibition Apol 40' (DRC-2, 40', concentration 20): 41%
- % inhibition Apol 40' (DRC-2, 40', concentration 40): 53%
- % inhibition Apol 40' (DRC-2, 40', concentration 80): 64%
- % inhibition ApPOL 90' (DRC-2, 90', concentration 2.5): 0.656%
- % inhibition ApPOL 90' (DRC-2, 90', concentration 5): 7%
- % inhibition ApPOL 90' (DRC-2, 90', concentration 10): 21%
- % inhibition ApPOL 90' (DRC-2, 90', concentration 20): 36%
- % inhibition ApPOL 90' (DRC-2, 90', concentration 40): 50%
- % inhibition ApPOL 90' (DRC-2, 90', concentration 80): 65%
- % inhibition apPOL 180' (DRC-2, 180', concentration 2.5): -5%
- % inhibition apPOL 180' (DRC-2, 180', concentration 5): -1.23%
- % inhibition apPOL 180' (DRC-2, 180', concentration 10): 9%
- % inhibition apPOL 180' (DRC-2, 180', concentration 20): 23%
- % inhibition apPOL 180' (DRC-2, 180', concentration 40): 42%
- % inhibition apPOL 180' (DRC-2, 180', concentration 80): 63%
- % inhibition Apo pol 5' (conc 40 (unit not given), 5', DRC-2): 50%
- % inhibition ApPOL 90' (conc 40 (unit not given), 90', DRC-2): 50%
- DNA Pol [2]: 79

Compound: CN(C)C=CC(=O)c1ccccn1 [Molecule 64]
- IC50: 18.5 µM

Compound: CN1CC(=Cc2ccco2)C(=O)C(=Cc2ccco2)C1 [Molecule 65, CN1CC(=Cc2ccco2)C(=O)C(=Cc2ccco2)C1]
- DNA Pol [1]: 69
- % inhibition Apo pol 10' (DRC-1, concentration 2.5): 22.1284%
- % inhibition Apo pol 10' (DRC-1, concentration 5): 42.6789%
- % inhibition Apo pol 10' (DRC-1, concentration 10): 54.6654%
- % inhibition Apo pol 10' (DRC-1, concentration 20): 60.4298%
- % inhibition Apo pol 10' (DRC-1, concentration 40): 67.6613%
- % inhibition Apo pol 10' (DRC-1, concentration 80): 69.4432%
- % inhibition Apol 90' (DRC-1, 90', concentration 2.5): 10.4669%
- % inhibition Apol 90' (DRC-1, 90', concentration 5): 22.0675%
- % inhibition Apol 90' (DRC-1, 90', concentration 10): 32.2145%
- % inhibition Apol 90' (DRC-1, 90', concentration 20): 39.744%
- % inhibition Apol 90' (DRC-1, 90', concentration 40): 50.5992%
- % inhibition Apol 90' (DRC-1, 90', concentration 80): 58.0625%
- % inhibition apPOL 180' (DRC-1, 180', concentration 2.5): 4.595%
- % inhibition apPOL 180' (DRC-1, 180', concentration 5): 8.893%
- % inhibition apPOL 180' (DRC-1, 180', concentration 10): 17.702%
- % inhibition apPOL 180' (DRC-1, 180', concentration 20): 24.3352%
- % inhibition apPOL 180' (DRC-1, 180', concentration 40): 38.0441%
- % inhibition apPOL 180' (DRC-1, 180', concentration 80): 50.1748%
- % inhibition Apo pol 5' (DRC-2, 5', concentration 2.5): 27%
- % inhibition Apo pol 5' (DRC-2, 5', concentration 5): 34%
- % inhibition Apo pol 5' (DRC-2, 5', concentration 10): 42%
- % inhibition Apo pol 5' (DRC-2, 5', concentration 20): 45%
- % inhibition Apo pol 5' (DRC-2, 5', concentration 40): 49%
- % inhibition Apo pol 5' (DRC-2, 5', concentration 80): 47%
- % inhibition Apol 40' (DRC-2, 40', concentration 2.5): 21%
- % inhibition Apol 40' (DRC-2, 40', concentration 5): 27%
- % inhibition Apol 40' (DRC-2, 40', concentration 10): 37%
- % inhibition Apol 40' (DRC-2, 40', concentration 20): 43%
- % inhibition Apol 40' (DRC-2, 40', concentration 40): 52%
- % inhibition Apol 40' (DRC-2, 40', concentration 80): 55%
- % inhibition ApPOL 90' (DRC-2, 90', concentration 2.5): 17%
- % inhibition ApPOL 90' (DRC-2, 90', concentration 5): 21%
- % inhibition ApPOL 90' (DRC-2, 90', concentration 10): 32%
- % inhibition ApPOL 90' (DRC-2, 90', concentration 20): 38%
- % inhibition ApPOL 90' (DRC-2, 90', concentration 40): 50%
- % inhibition ApPOL 90' (DRC-2, 90', concentration 80): 56%
- % inhibition apPOL 180' (DRC-2, 180', concentration 2.5): 8%
- % inhibition apPOL 180' (DRC-2, 180', concentration 5): 8%
- % inhibition apPOL 180' (DRC-2, 180', concentration 10): 20%
- % inhibition apPOL 180' (DRC-2, 180', concentration 20): 28%
- % inhibition apPOL 180' (DRC-2, 180', concentration 40): 42%
- % inhibition apPOL 180' (DRC-2, 180', concentration 80): 54%
- % inhibition Apo pol 5' (conc 2.5 (unit not given), 5', DRC-2): 27%
- % inhibition Apol 40' [3]: 21%
- % inhibition apPOL 180' (conc 2.5 (unit not given), 180', DRC-2): 8%
- % inhibition Apol 40' (conc 5 (unit not given), 40', DRC-2): 27%
- % inhibition ApPOL 90' [4]: 21%
- % inhibition apPOL 180' (conc 5 (unit not given), 180', DRC-2): 8%
- % inhibition Apo pol 5' (conc 10 (unit not given), 5', DRC-2): 42%
- % inhibition apPOL 180' (conc 40 (unit not given), 180', DRC-2): 42%
- DNA Pol [2]: 69

Compound: CN1CC(=Cc2ccco2)C(=O)C(=Cc2ccco2)C1 [Molecule 65]
- IC50: 7.51 µM

Compound: O=C1c2ccccc2C(=O)N1Oc1ccc([N+](=O)[O-])c([N+](=O)[O-])c1 [Molecule 66]
- IC50: 37 µM

Compound: CC(NC(=O)Cc1cc(=O)[nH]c(SCc2cccc(Cl)c2)n1)c1ccccc1 (stereo not shown) [Molecule 67]
- IC50: 23.3 µM

Compound: O=C(NNC(=O)C(F)(F)Sc1ccccc1)c1ccsc1 [Molecule 68, O=C(C(Sc1ccccc1)(F)F)NNC(=O)c1cscc1]
- DNA Pol [1]: 82
- % inhibition Apo pol 10' (DRC-1, concentration 2.5): 18.9007%
- % inhibition Apo pol 10' (DRC-1, concentration 5): 22.6096%
- % inhibition Apo pol 10' (DRC-1, concentration 10): 35.002%
- % inhibition Apo pol 10' (DRC-1, concentration 20): 47.6682%
- % inhibition Apo pol 10' (DRC-1, concentration 40): 67.1681%
- % inhibition Apo pol 10' (DRC-1, concentration 80): 81.7014%
- % inhibition Apol 90' (DRC-1, 90', concentration 2.5): -2.054%
- % inhibition Apol 90' (DRC-1, 90', concentration 5): 4.132%
- % inhibition Apol 90' (DRC-1, 90', concentration 10): 13.2706%
- % inhibition Apol 90' (DRC-1, 90', concentration 20): 25.6835%
- % inhibition Apol 90' (DRC-1, 90', concentration 40): 44.8257%
- % inhibition Apol 90' (DRC-1, 90', concentration 80): 64.9924%
- % inhibition apPOL 180' (DRC-1, 180', concentration 2.5): -9.701%
- % inhibition apPOL 180' (DRC-1, 180', concentration 5): -6.4745%
- % inhibition apPOL 180' (DRC-1, 180', concentration 10): 2.016%
- % inhibition apPOL 180' (DRC-1, 180', concentration 20): 13.4425%
- % inhibition apPOL 180' (DRC-1, 180', concentration 40): 32.4259%
- % inhibition apPOL 180' (DRC-1, 180', concentration 80): 53.4351%
- % inhibition Apo pol 5' (DRC-2, 5', concentration 2.5): 9%
- % inhibition Apo pol 5' (DRC-2, 5', concentration 5): 10%
- % inhibition Apo pol 5' (DRC-2, 5', concentration 10): 23%
- % inhibition Apo pol 5' (DRC-2, 5', concentration 20): 31%
- % inhibition Apo pol 5' (DRC-2, 5', concentration 40): 47%
- % inhibition Apo pol 5' (DRC-2, 5', concentration 80): 58%
- % inhibition Apol 40' (DRC-2, 40', concentration 2.5): 5%
- % inhibition Apol 40' (DRC-2, 40', concentration 5): 7%
- % inhibition Apol 40' (DRC-2, 40', concentration 10): 19%
- % inhibition Apol 40' (DRC-2, 40', concentration 20): 27%
- % inhibition Apol 40' (DRC-2, 40', concentration 40): 48%
- % inhibition Apol 40' (DRC-2, 40', concentration 80): 64%
- % inhibition ApPOL 90' (DRC-2, 90', concentration 2.5): 2.82%
- % inhibition ApPOL 90' (DRC-2, 90', concentration 5): 2.82%
- % inhibition ApPOL 90' (DRC-2, 90', concentration 10): 15%
- % inhibition ApPOL 90' (DRC-2, 90', concentration 20): 22%
- % inhibition ApPOL 90' (DRC-2, 90', concentration 40): 44%
- % inhibition ApPOL 90' (DRC-2, 90', concentration 80): 62%
- % inhibition apPOL 180' (DRC-2, 180', concentration 2.5): -3.39%
- % inhibition apPOL 180' (DRC-2, 180', concentration 5): -3.25%
- % inhibition apPOL 180' (DRC-2, 180', concentration 10): 5%
- % inhibition apPOL 180' (DRC-2, 180', concentration 20): 12%
- % inhibition apPOL 180' (DRC-2, 180', concentration 40): 32%
- % inhibition apPOL 180' (DRC-2, 180', concentration 80): 55%
- % inhibition Apol 40' [3]: 5%
- % inhibition ApPOL 90' (conc 2.5 (unit not given), 90', DRC-2): 2.82%
- % inhibition ApPOL 90' [4]: 2.82%
- % inhibition apPOL 180' (conc 10 (unit not given), 180', DRC-2): 5%
- DNA Pol [2]: 82

Compound: O=C(NNC(=O)C(F)(F)Sc1ccccc1)c1ccsc1 [Molecule 68]
- IC50: 21 µM
